Results reported in patent publication US20170190705A1, “Compositions and Methods for Inhibiting BMP” (THE BRIGHAM AND WOMAN'S HOSPITAL, INC., priority 2014, published 2017).

Columns and labels:
Assay type in all cases: biochemical
[1] = molecular target: T1, NEK1 (Homo sapiens, UniProt Q96PY6); experiment: Kinome profiling NEK1; conditions: read-out: Inhibitory activity NEK1; for inhibition at 0.1 µM: 100 nM
T1 sequence (Q96PY6 1-1258): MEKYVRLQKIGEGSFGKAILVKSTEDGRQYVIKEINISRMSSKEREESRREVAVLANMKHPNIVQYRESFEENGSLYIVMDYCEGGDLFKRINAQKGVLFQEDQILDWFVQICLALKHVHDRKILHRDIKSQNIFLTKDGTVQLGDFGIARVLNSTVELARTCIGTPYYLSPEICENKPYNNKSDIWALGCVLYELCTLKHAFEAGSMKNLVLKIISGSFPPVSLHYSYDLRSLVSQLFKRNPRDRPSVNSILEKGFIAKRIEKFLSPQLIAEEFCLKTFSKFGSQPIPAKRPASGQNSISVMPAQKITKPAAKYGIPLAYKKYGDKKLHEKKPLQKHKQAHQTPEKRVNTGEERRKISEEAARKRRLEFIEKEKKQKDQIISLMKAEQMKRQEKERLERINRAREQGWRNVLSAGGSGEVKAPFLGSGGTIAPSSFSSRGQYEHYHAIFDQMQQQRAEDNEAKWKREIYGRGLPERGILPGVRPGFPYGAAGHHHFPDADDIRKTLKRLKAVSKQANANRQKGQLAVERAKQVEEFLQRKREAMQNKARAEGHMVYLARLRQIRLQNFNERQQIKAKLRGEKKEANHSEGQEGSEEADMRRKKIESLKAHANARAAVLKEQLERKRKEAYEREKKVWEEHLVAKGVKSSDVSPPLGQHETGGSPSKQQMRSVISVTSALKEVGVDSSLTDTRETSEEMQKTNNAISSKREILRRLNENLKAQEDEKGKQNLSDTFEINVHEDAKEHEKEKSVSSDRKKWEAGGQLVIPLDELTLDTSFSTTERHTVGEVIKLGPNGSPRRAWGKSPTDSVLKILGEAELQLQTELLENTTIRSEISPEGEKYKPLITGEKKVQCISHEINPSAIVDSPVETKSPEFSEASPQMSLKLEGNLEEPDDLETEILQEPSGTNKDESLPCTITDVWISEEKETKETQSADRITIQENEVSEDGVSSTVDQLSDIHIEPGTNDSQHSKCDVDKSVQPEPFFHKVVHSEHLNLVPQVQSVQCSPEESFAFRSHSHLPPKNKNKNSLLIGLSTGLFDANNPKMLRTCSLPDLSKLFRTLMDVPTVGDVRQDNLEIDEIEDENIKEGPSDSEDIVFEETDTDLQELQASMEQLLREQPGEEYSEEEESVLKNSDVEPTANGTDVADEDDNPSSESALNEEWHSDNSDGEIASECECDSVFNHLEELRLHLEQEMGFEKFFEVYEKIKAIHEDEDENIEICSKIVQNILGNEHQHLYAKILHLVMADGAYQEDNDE
Method: (§1) . The kinome-wide selectivity was determined following the methods previously reported by Mohedas et al., ACS Chem Biol 2013, 8, 1291-1302 and Sanvitale et al., PLoS One 2013, 8, e62721.

[2] = molecular target: YES (Homo sapiens, UniProt P07947); experiment: Kinome profiling YES; conditions: read-out: Inhibitory activity YES; for inhibition at 0.1 µM: 100 nM
Method: as §1

[3] = molecular target: T2, JAK3 (Homo sapiens, UniProt P52333); experiment: Kinome profiling JAK3; conditions: read-out: Inhibitory activity JAK3; for inhibition at 0.1 µM: 100 nM
T2 sequence (P52333 1-1124): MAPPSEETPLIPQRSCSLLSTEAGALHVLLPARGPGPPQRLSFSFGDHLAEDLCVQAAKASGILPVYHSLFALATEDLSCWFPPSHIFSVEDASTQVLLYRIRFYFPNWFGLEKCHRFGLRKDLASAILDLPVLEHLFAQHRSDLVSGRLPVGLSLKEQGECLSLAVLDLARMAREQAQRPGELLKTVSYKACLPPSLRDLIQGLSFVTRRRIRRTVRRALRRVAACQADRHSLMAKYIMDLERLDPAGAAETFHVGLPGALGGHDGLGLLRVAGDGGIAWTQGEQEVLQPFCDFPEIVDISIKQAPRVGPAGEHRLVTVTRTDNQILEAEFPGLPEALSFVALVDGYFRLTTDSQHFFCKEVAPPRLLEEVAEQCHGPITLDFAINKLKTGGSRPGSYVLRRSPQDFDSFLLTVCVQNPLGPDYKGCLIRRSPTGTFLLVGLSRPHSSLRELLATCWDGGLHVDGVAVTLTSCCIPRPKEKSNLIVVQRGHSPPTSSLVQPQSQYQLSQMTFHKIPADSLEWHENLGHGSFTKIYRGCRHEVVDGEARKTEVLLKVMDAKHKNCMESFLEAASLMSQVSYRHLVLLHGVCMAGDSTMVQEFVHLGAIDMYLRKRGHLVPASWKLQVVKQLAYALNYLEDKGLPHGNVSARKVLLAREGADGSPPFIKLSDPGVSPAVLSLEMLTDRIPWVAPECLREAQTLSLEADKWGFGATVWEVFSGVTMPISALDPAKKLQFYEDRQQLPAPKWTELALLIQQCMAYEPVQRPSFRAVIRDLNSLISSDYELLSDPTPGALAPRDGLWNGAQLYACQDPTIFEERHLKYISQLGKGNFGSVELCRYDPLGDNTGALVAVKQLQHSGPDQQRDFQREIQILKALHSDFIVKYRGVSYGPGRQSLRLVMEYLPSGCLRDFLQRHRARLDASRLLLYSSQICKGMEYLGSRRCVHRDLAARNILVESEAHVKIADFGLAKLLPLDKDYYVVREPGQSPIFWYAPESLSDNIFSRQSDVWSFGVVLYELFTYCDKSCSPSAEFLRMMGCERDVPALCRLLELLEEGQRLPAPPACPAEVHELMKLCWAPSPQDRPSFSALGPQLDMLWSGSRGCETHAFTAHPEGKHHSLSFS
Method: as §1

Chain of YES (P07947 whole entry): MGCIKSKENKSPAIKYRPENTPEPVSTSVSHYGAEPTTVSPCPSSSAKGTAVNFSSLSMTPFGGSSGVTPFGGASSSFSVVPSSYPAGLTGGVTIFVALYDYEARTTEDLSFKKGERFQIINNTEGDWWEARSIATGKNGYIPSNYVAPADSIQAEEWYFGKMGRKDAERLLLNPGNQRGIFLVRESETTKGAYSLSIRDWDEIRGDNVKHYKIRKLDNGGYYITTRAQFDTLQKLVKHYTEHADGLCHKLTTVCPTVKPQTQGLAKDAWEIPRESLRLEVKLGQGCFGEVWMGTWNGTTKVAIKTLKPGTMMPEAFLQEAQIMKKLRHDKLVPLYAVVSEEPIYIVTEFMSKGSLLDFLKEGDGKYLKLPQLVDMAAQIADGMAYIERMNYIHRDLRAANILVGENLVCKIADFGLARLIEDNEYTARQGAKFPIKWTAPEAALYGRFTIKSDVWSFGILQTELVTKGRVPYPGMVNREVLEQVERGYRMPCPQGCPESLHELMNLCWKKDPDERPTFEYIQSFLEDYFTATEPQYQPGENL

Structure (SMILES): COc1cc(-c2cc(-c3ccc(N4CCNCC4)cc3)cnc2C)cc(OC)c1OC [Compound 10, 1-(4-(6-methyl-5-(3,4,5-trimethoxyphenyl)pyridin-3-yl)phenyl)piperazine]
- inhibition at 0.1 µM [1]: 2%
- inhibition at 1 µM [1]: 1%
- inhibition at 0.1 µM [2]: 11%
- inhibition at 1 µM [2]: 47%
- inhibition at 0.1 µM [3]: 3%
- inhibition at 1 µM [3]: 3%

Structure (SMILES): COc1cc(-c2cc(-c3ccc(N4CCNCC4)cc3)cnc2N)cc(OC)c1OC [Compound 15, 5-(4-(piperazin-1-yl)phenyl)-3-(3,4,5-trimethoxyphenyl)pyridin-2-amine]
- inhibition at 0.1 µM [1]: 1%
- inhibition at 1 µM [1]: 1%
- inhibition at 0.1 µM [2]: 41%
- inhibition at 1 µM [2]: 82%
- inhibition at 0.1 µM [3]: 0%
- inhibition at 1 µM [3]: 3%
